Data as given in publication PMC5679629, “Flavin-containing monooxygenase 3 (FMO3) role in busulphan metabolic pathway” (PLoS ONE, 2017).

How the values were obtained:
[1] = design: method as in PMID 2886318; conditions: rats, cited from earlier work
[2] = Busulphan and THT plasma kinetics in a patient treated concomitantly with voriconazole; assay type: in vivo, human; conditions: Bu 2mg/kg b.i.d. with concomitant voriconazole
Protocol: In order to confirm the contribution of FMO3 to human Bu kinetics, blood samples were collected (routinely) from a patient who underwent stem cell transplantation and was conditioned according to the hospital transplantation protocol i.e. high dose of Bu (2mg/kg b.i.d.) for four days followed with two days of cyclophosphamide (60mg/kg). […] Voriconazole was administered, according to the hospital clinical protocol, for the treatment of an acute fungal infection.
Samples were taken for therapeutic drug monitoring (TDM) at several time points after the first, third and fifth doses. Blood was collected into EDTA vacutainer tubes, plasma was separated by centrifugation at 1200 g and stored at -20°C until analysis of Bu and THT [18].

[3] = cited from earlier work
FMO3 mRNA = assay: Gene expression in patients conditioned with busulphan (gene array, qRT-PCR); assay type: in vivo, human; conditions: oral Bu 2mg/kg b.i.d. for 4 days, normalized to GAPDH
Protocol: (§1) FMO3 mRNA expression was studied in twelve patients undergoing HSCT at the Center for Allogeneic Stem Cell Transplantation (CAST), Karolinska University Hospital-Huddinge, Sweden. The study was approved by the ethical committee of Karolinska Institutet (616/03) in accordance with the Helsinki Declaration of 1975 and with informed consent from each patient or their guardian. All patients were treated with oral Bu, administered at a dose of 2mg/kg (8μmol/kg) b.i.d. for 4 days followed by an i.v. infusion of cyclophosphamide (Cy) 60mg/kg/day (230μmol/kg/day) once daily for 2 days before the stem cell infusion.
(§2) Blood samples for mRNA quantification were collected in PAXgene^TM blood RNA tubes (BD, Stockholm, Sweden) prior to the start of Bu treatment and after the last Bu dose.
(§3) RNA was extracted from the mononuclear cells using QuickPreps^TM Total RNA Extraction Kit (GE Life Sciences, Uppsala, Sweden). RNA (1μg) was reverse transcribed to complementary DNA (cDNA) using the TaqMan^TM Kit (Applied Biosystems, Roche, NJ, USA).
Purified mRNA was subjected to analysis of global gene expression by using NimbleGen microarrays (Roche Diagnostics Scandinavia, Bromma, Sweden). Data were analyzed by Genespring GX (Agilent, CA, USA). Quantile normalization was used on the probe expression data generated using the Robust Multichip Average algorithm. […]

GSTA1 mRNA = assay: Gene expression in patients conditioned with busulphan (gene array); assay type: in vivo, human; conditions: oral Bu 2mg/kg b.i.d. for 4 days
Protocol: as §1, §2, §3
Purified mRNA was subjected to analysis of global gene expression by using NimbleGen microarrays (Roche Diagnostics Scandinavia, Bromma, Sweden). Data were analyzed by Genespring GX (Agilent, CA, USA). Quantile normalization was used on the probe expression data generated using the Robust Multichip Average algorithm.

in vivo = conditions: male, C57BL/6N, mouse, plasma, ip, 25 mg/kg
Protocol: (§4) Male C57BL/6N mice (6–8 weeks old) were purchased from Charles River (Cologne, Germany). The mice were allowed to acclimatize to the surroundings for 2 weeks with a 12h dark/12h light cycle and randomized for treatment. Standard laboratory chow and water ad libitum was introduced.
(§5) To study Bu and THT kinetics, Bu (Sigma-Aldrich, Steinheim, Germany) was administered i.p. (25mg/kg or 100μmol/kg) as a 2mM solution in DMSO (Sigma-Aldrich, Stockholm, Sweden) [21]. THT was also prepared as a 2mM solution in DMSO and the dose given was equimolar to the Bu treatment (i.e. 100μmol/kg or 8.8 mg/kg). Upon injection, samples were diluted with physiological NaCl solution to a final DMSO concentration of 10% in the dosing solution. At the appropriate time points (10min, 30min, 1h, 2h, 4h, 6h and 8h), mice (three mice at each time point) were anesthetized using 2% isoflurane and the blood samples were collected by heart puncture. Mice were euthanized by cervical dislocation. Plasma was separated and stored at -20°C.
(§6) PTU (3mg/kg) was dissolved in DMSO and diluted with physiological NaCl solution and then injected into the mice once daily followed by Bu or THT injections on the 4th day. The mice were euthanized and plasma samples prepared as in the previous experiment.
(§7) To detect the effect of high THT concentrations on Bu metabolism, a third group of mice was injected with both Bu (100μmol/kg) and a high dose of THT (17.6mg/kg or 200μmol/kg) and samples prepared as described previously. All experiments including negative controls (mice injected with 10% DMSO in NaCl solution) and mice injected with PTU alone were performed in triplicates.
(§8) To quantify Bu, samples were extracted according to the method reported previously by Hassan et al. [24]. Briefly, 500 μL of plasma were diluted with 500 μL of water. Fifty microliters of the internal standard (1,5-bis(methanesulfonoxy)pentane; 38.5 μM) were added, followed by the addition of 1 mL of sodium iodide (8M, Merck, Darmstadt, Germany) and 400μL of n-heptane (Merck, Darmstadt, Germany). The tubes were placed under magnetic stirring in a water bath (70°C) for 45 min. During the reaction, busulphan and 1,5-bis(methanesulfonoxy)pentane were converted to 1,4-diiodobutane and 1,5-diiodopentane respectively and subsequently extracted with n-heptane [25]. The conversion of busulphan and 1,5-bis(methanesulfonoxy)pentane to 1,4-diiodobutane and 1,5-diiodopentane was over 90% [24]. The organic phase was analyzed by GC-MS [18]. THT was quantified as described previously and the method was validated for use with mouse plasma before measuring both Bu and THT [19, 20].
(§9) Kinetic parameters from in vivo studies were estimated using WinNonLin software (standard edition, version 2.0), while Microsoft Excel and SigmaPlot software (version 12.5, Systat software, Inc.) were utilized for in vitro kinetics.

[4] = Busulphan kinetics in mice (alone, after PTU pretreatment, or with high-dose THT); conditions: for AUC / Cmax: male, C57BL/6N, mouse, plasma, ip, 25 mg/kg, mean
Protocol: as §4, §5, §6, §7, §8, §9

[5] = within 72 hours of administration
[6] = Group 1: mice, Bu 25mg/kg i.p. alone
[7] = Group 2: mice, Bu 25mg/kg i.p. after PTU 3mg/kg i.p. once daily for 3 days

Compound | share of Bu excreted in urine as this metabolite [1, 5] [%] | Bu levels versus same dose of Bu administered alone [2] | Bu clearance versus a patient treated with Bu alone ([2]; P<0.05) | decrease of Bu clearance ([3]; child with AML, after two days concomitant metronidazole) [%] | daily AUC in excess of the predicted ([3]; child with AML, concomitant metronidazole) [%] | mean Bu trough levels with concomitant metronidazole ([3]; patients undergoing HSCT) | FMO3 mRNA after Bu conditioning versus before (FMO3 mRNA) | GSTA1 mRNA after Bu conditioning versus before (GSTA1 mRNA) | AUC (in vivo) [µM·h] | Cmax (in vivo) [µM] | Bu excreted in the urine as unchanged drug [1] [%] | Bu excreted in the form of its subsequent metabolites [1, 5] | AUC [4, 6] [µM·h] | AUC [4, 7] [µM·h] | Cmax [4, 6] [µM] | Cmax [4, 7] [µM] | Bu plasma concentrations and Bu exposure (AUC) versus Bu alone ([4]; mice treated with FMO3 inhibitor PTU before Bu administration) | levels of Bu versus Bu alone ([4]; mice, concomitant administration of THT and Bu)
[O-][S+]1CCCC1 [THT 1-oxide, tetrahydrothiophene 1-oxide] | 20 |  |  |  |  |  |  |  |  |  |  |  |  |  |  |  |  | 
O=S1(=O)CCC(O)C1 (stereo not shown) [3-OH-sulfolane, 3-hydroxysulfolane] | 39 |  |  |  |  |  |  |  |  |  |  |  |  |  |  |  |  | 
CS(=O)(=O)OCCCCOS(C)(=O)=O [Bu, Busulphan] |  | higher than expected | slower | 46 | 86 | two-fold higher | significant up-regulation | significantly up-regulated | 65.5 | 16.5 | 2 | more than 70% | 44.3 | 65.3 | 7.47 | 25.5 | significantly (P<0.05, t-test) higher | higher levels
